Laboratory results taken from patent US11390631B1, “Benzodiazepine derivatives as RSV inhibitors” (priority 2015, dated 2022).
Read-outs that look alike come from different tables or passages of the source.

Experiments:
[1] = system: Human RSV-A (“Long” strain); test: RSV-A assay: inhibition of cytopathic effect in Hep-2 cells, ATPlite readout; type: cell-based, Human respiratory syncytial virus (HRSV); details: human respiratory syncytial virus, read-out: Human RSV-A (“Long” strain) EC50
Method in brief: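 Hep-2 cells (8,000/well) were infected with RSV-A Long at MOI 0.1 alongside duplicate 2-fold compound dilutions. After 5 days, cell viability was read by ATPlite luminescence to give EC50. CC50 came from a parallel plate without virus.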

[2] = system: RSV-B, genotype B, strain 9320; test: RSV-B assay: A549 cells infected with RSV-B, qPCR or ATPlite readout; type: cell-based, Human respiratory syncytial virus (HRSV); details: human respiratory syncytial virus
Excerpt: Hep-2 cells, (originally derived from tumors grown in irradiated-cortisonised weanling rats that had been injected with epidermoid carcinoma tissue from a person's larynx, but later found to be indistinguishable from HeLa cells by PCR DNA analysis), were used for the culturing of genotype B, strain 9320. Flasks were inoculated with RSV-B and viral stocks were collected once cytopathic effect (CPE) was greater than […]. Viral stocks in 25% o sucrose media were snap frozen using liquid nitrogen to increase viral stability. Viral stock titers were quantified by tissue culture infectious dose 50% o (TCID50) using 8,000 cells per well and 5-fold viral dilutions across a 96-well plate, cultured for 4 days. Viral stock titers were also quantified by a plaque forming unit assay, as described elsewhere.
The assay is run as follows: A549 cells (originally derived through explant culture from a person's carcinomatous lung tissue) are seeded into the inner 60 wells of a 96-well plate at 3,000 cells per well in a volume of 50 μL using A549 growth media (F-12K Media, 1% Penn/Strep, 1% nonessential amino acids, 10% heat-inactivated FBS). 2-fold serial dilutions of control and test compounds are added to the wells in duplicate in a total volume of 25 μL. Viral stock is then added to the wells at a multiplicity of infection (MOI) of 0.5 in a volume of 25 μL, bringing the total volume of each well to 100 μL. The MOI is calculated using the PFU/mL, or TCID50 if unavailable. Each 96-well plate has a control column of 6 wells with cells and virus but no compound (negative control, max CPE), a column with cells but no compound or virus (positive control, minimum CPE), and a column with no cells or virus or compound (background plate/reagent control). The control wells with cells but no virus are given an additional 25 uL of growth media containing an equal quantity of sucrose as those wells receiving the viral stock in order to keep consistent in media and volume conditions. The outer wells of the plate are filled with 125 μL of moat media (DMEM, 1% Penn/Strep) to act as a thermal and evaporative moat around the test wells. 6 days post infection, the plates are read using qPCR or ATP lite (50 uL added per well), which quantifies the amount of ATP (a measure of cell health) present in each well. Assay plates treated with APTlite are read using the Envision luminometer. […] EC50 ranges are as follows: A<0.4 μM; B 0.4-0.8 μM; C>0.8 μM.

[3] = A549, read-out: Human RSV-B EC50
[4] = 120 h, Hep-2 cells, MOI 0.1, 5-day incubation, ATPlite
[5] = A549 cells infected with RSV-B strain 9320, MOI 0.5, read-out: Human RSV-B EC50

SMILES	EC50 ([1]; HEp-2, 120 h)	EC50 [2, 3]	EC50 [1, 4]	EC50 [2, 5]
CN(C)c1ccc(-c2nnc(NC3N=C(c4ccccc4)c4ccccc4NC3=O)o2)nc1 (centres unmarked) [Example 108]	> 0.8 µM	> 0.8 µM		
O=C1Nc2ccccc2C(c2ccccc2)=NC1Nc1nnc(-c2cccnc2N2CCOCC2)o1 (centres unmarked) [Example 120]	< 0.4 µM	0.4 to 0.8 µM		
O=C1Nc2ccccc2C(c2ccccc2)=NC1Nc1nnc(-c2ccc(C(F)(F)F)cc2N2CCOCC2)o1 (centres unmarked) [Example 123]	< 0.4 µM	0.4 to 0.8 µM		
O=C1Nc2ccccc2C(c2ccccc2)=NC1Nc1nnc(-c2ccc(F)cc2N2CCOCC2)o1 (centres unmarked) [Example 127]	< 0.4 µM	< 0.4 µM		
O=C1Nc2ccccc2C(c2ccccc2)=NC1Nc1nnc(-c2ccc(-n3cccn3)cc2N2CCOCC2)o1 (centres unmarked) [Example 129]	< 0.4 µM	< 0.4 µM		
N#Cc1ccc(-c2nnc(NC3N=C(c4ccccc4)c4ccccc4NC3=O)o2)c(N2CCOCC2)c1 (centres unmarked) [Example 131]	< 0.4 µM	< 0.4 µM		
O=C1Nc2ccccc2C(c2ccccc2)=N[C@@H]1Nc1nnc(-c2ncc(F)cc2N2CCOCC2)o1 [Example 136, (S)-3-((5-(5-fluoro-3-morpholinopyridin-2-yl)-1,3,4-oxadiazol-2-yl)amino)-5-phenyl-1,3-dihydro-2H-benzo[e][1,4]diazepin-2-one]	< 0.4 µM	< 0.4 µM		
O=C1Nc2ccccc2C(c2ccccc2)=NC1Nc1nnc(-c2ncc(C(F)(F)F)cc2N2CCOCC2)o1 (centres unmarked) [Example 139]			< 0.4 µM	< 0.4 µM
Cc1ccc(-c2nnc(NC3N=C(c4ccccc4)c4ccccc4NC3=O)o2)c(N2CCOCC2)n1 (centres unmarked) [Example 144]	< 0.4 µM	< 0.4 µM		
N#Cc1ccc(-c2nnc(N[C@H]3N=C(c4ccccc4)c4ccccc4NC3=O)o2)c(N2CCOCC2)n1 [Example 153]	< 0.4 µM	< 0.4 µM		
Cn1c(N2CCOCC2)c(-c2nnc(N[C@H]3N=C(c4ccccc4)c4ccccc4NC3=O)o2)ccc1=O [Example 155]	< 0.4 µM	< 0.4 µM		
Cc1nc(N2CCOCC2)c(-c2nnc(N[C@H]3N=C(c4ccccc4)c4ccccc4NC3=O)o2)cc1C#N [Example 158]	< 0.4 µM	< 0.4 µM		
O=C1Nc2ccccc2C(c2ccccc2)=N[C@@H]1Nc1nnc(-c2ncc(Br)cc2N2CCOCC2)o1 [Example 168]	< 0.4 µM	< 0.4 µM		
O=C1Nc2ccccc2C(c2ccccc2)=N[C@@H]1Nc1nnc(-c2ncc(C3CC3)cc2N2CCOCC2)o1 [Example 169]	< 0.4 µM	< 0.4 µM		
N#Cc1cc(-c2nnc(N[C@H]3N=C(c4ccccc4)c4ccccc4NC3=O)o2)c(N2CCOCC2)nc1C1CC1 [Example 175]	< 0.4 µM	0.4 to 0.8 µM		
O=C1Nc2ccccc2C(c2ccccc2)=N[C@@H]1Nc1nnc(-c2oc3ccccc3c2N2CCOCC2)o1 [Example 179]	< 0.4 µM	< 0.4 µM		
CN1CCN(c2ccccc2-c2nnc(NC3N=C(c4ccccc4)c4ccccc4NC3=O)o2)CC1 (centres unmarked) [Example 224]	> 0.8 µM	< 0.4 µM		
O=C1Nc2ccccc2C(c2ccccc2)=N[C@@H]1Nc1nnc(-c2cccnc2N2CCOCC2)o1 [Example 242]	< 0.4 µM	< 0.4 µM		
C[C@@H]1COCCN1c1ncccc1-c1nnc(NC2N=C(c3ccccc3)c3ccccc3NC2=O)o1 (some centres unmarked) [Example 245]	< 0.4 µM	0.4 to 0.8 µM		
O=C1Nc2ccccc2C(c2ccccc2)=N[C@@H]1Nc1nnc(-c2ncc(C(F)(F)F)cc2N2C3CCC2COC3)o1 [Example 250]	< 0.4 µM	< 0.4 µM		

SMILES	EC50 ([1]; HEp-2, 120 h)	EC50 [2, 3]	EC50 [1, 4]	EC50 [2, 5]
O=C1Nc2ccccc2C(c2ccccc2)=N[C@@H]1Nc1nnc(-c2ncc(C(F)(F)F)cc2N2CC3CCC(C2)O3)o1 [Example 251]	< 0.4 µM	< 0.4 µM		
Cc1ccc(-c2nnc(N[C@H]3N=C(c4ccccc4)c4ccccc4NC3=O)o2)c(N2CCOCC2)n1 [Example 252]	< 0.4 µM	< 0.4 µM		
O=C1Nc2ccccc2C(c2ccccc2)=N[C@@H]1Nc1nnc(-c2ncc(C(F)(F)F)cc2N2CCOCC2)o1 [Example 253]			< 0.4 µM	< 0.4 µM
C[C@H]1CN(c2ncccc2-c2nnc(NC3N=C(c4ccccc4)c4ccccc4NC3=O)o2)CCO1 (some centres unmarked) [Example 263]	0.4 to 0.8 µM	0.4 to 0.8 µM		
COC1CCN(c2cc(C(F)(F)F)cnc2-c2nnc(N[C@H]3N=C(c4ccccc4)c4ccccc4NC3=O)o2)CC1 [Example 268]	> 0.8 µM	0.4 to 0.8 µM		
O=C1Nc2ccccc2C(c2ccccc2)=N[C@@H]1Nc1nnc(-c2ncc(C(F)(F)F)cc2N2CCC(F)CC2)o1 [Example 269]	> 0.8 µM	0.4 to 0.8 µM		
Cc1nc(-c2nnc(N[C@H]3N=C(c4ccccc4)c4ccccc4NC3=O)o2)c(N2CCOCC2)s1 [Example 272]	< 0.4 µM	< 0.4 µM		
O=C1Nc2ccccc2C(c2ccccc2)=N[C@@H]1Nc1nnc(-c2ccc(C(F)(F)F)nc2N2CC3CCC(C2)O3)o1 [Example 276]	0.4 to 0.8 µM	> 0.8 µM		
C[C@@H]1CN(c2cc(C(F)(F)F)cnc2-c2nnc(N[C@H]3N=C(c4ccccc4)c4ccccc4NC3=O)o2)CCO1 [Example 277]	< 0.4 µM	< 0.4 µM		
C[C@H]1CN(c2cc(C(F)(F)F)cnc2-c2nnc(N[C@H]3N=C(c4ccccc4)c4ccccc4NC3=O)o2)CCO1 [Example 278]	< 0.4 µM	< 0.4 µM		
COCCOc1cc(C#N)ccc1-c1nnc(N[C@H]2N=C(c3ccccc3)c3ccccc3NC2=O)o1 [Example 300]	< 0.4 µM	< 0.4 µM		
N#CCCNc1cc(C(F)(F)F)cnc1-c1nnc(N[C@H]2N=C(c3ccccc3)c3ccccc3NC2=O)o1 [Example 303]	< 0.4 µM	< 0.4 µM		
N#Cc1cnc(-c2nnc(N[C@H]3N=C(c4ccccc4)c4ccccc4NC3=O)o2)c(N2CC3CCC(C2)O3)c1 [Example 304]	< 0.4 µM	< 0.4 µM		
O=C1Nc2ccccc2C(c2ccccc2)=N[C@@H]1Nc1nnc(-c2nc3ccccc3cc2N2CCOCC2)o1 [Example 322]	< 0.4 µM	< 0.4 µM		
O=C1Nc2ccccc2C(c2ccccc2)=N[C@@H]1Nc1nnc(-c2ncsc2N2CCOCC2)o1 [Example 336]	< 0.4 µM	< 0.4 µM		
O=C1Nc2ccccc2C(c2ccccc2)=N[C@@H]1Nc1nnc(-c2nc(C3CC3)sc2N2CCOCC2)o1 [Example 338]	< 0.4 µM	< 0.4 µM		
O=C1Nc2ccccc2C(c2ccccc2)=N[C@@H]1Nc1nnc(-c2nc(C(F)(F)F)sc2N2CCOCC2)o1 [Example 339]	< 0.4 µM	< 0.4 µM		
O=C1Nc2ccccc2C(c2ccccc2)=N[C@@H]1Nc1nnc(-c2nc(-c3ccccc3)sc2N2CCOCC2)o1 [Example 340]	< 0.4 µM	< 0.4 µM		
O=C1Nc2ccccc2C(c2ccccc2)=N[C@@H]1Nc1nnc(-c2nc(-c3ccccn3)sc2N2CCOCC2)o1 [Example 341]	< 0.4 µM	< 0.4 µM		
O=C1Nc2ccccc2C(c2ccccc2)=N[C@@H]1Nc1nnc(-c2csc(N3CCOCC3)n2)o1 [Example 351]	0.4 to 0.8 µM	0.4 to 0.8 µM		
